Series [1] concerns SKOV3 human ovarian carcinoma cells not infected (NR−). Nature of the series: cells. It counts as cell-based. The note with it: Homo sapiens, read-out: IC50 in SKOV3 NR−.
For series [2], the target named is T1, E. coli nitroreductase (Escherichia coli, UniProt P38489). It counts as biochemical. The note with it: 200 μM compound, 1 mM NADH, 1.8 μg E. coli nitroreductase, 10 mM phosphate buffer pH 7.0, 37° C., 250 μL, UV 340 nm.
Series [3] has as its target T1, E. coli nitroreductase. Briefly: in vitro. The note with it: pH 7.
For the next series, the system named is hDT7 cells. Briefly: cells. It counts as cell-based, Chinese hamster. The note with it: Cricetulus griseus, V79, 72 h, read-out: IC50 hDT7.
Series [4] relates to SKOV3 human ovarian carcinoma cells infected with adenovirus expressing E. coli nitroreductase (NR+). Briefly: Cytotoxicity in SKOV3 cells infected with adenovirus expressing E. coli nitroreductase (NR+), MTT. It counts as cell-based. Conditions: for pIC50: Homo sapiens, SK-OV-3, 18 h, read-out: IC50 in SKOV3 NR+, 18 hour drug exposure, adenovirus NR, 100 pfu/cell; for Ratio of IC50 values (NR−/NR+): SKOV3, 18 hour drug exposure.

The test system of the next series is F179 cells. Briefly: cells. The note with it: Cricetulus griseus, read-out: IC50 F179.
A further series concerns T116 cells. Nature of the series: cells. It counts as cell-based, Chinese hamster. Conditions: for pIC50: Cricetulus griseus, read-out: IC50 T116.

pIC50: −log10 of the molar value. Where two headings read alike, the source gives them in different places.

T1 sequence (P38489 whole entry): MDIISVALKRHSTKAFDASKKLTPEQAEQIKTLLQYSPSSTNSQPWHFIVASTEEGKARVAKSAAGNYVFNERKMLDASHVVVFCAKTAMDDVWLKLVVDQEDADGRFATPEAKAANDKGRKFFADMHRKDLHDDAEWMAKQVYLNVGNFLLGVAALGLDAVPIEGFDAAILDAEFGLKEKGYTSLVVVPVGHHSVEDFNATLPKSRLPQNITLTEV

Consider `O=[N+]([O-])c1ccc2c(c1)NP(=O)(N(CCCl)CCCl)OC2` (stereo not shown) [Compound 9c, 7-Nitro-2-[bis(2-chloroethyl)amino]-3,1,2-benzoxazaphosphorinane-2-oxide], for which the pIC50 is 3.27 in series [1] (SK-OV-3, 18 h); below 4.00 in the series on hDT7 cells; 4.26 in series [4]; below 4.00 with F179 cells (72 h); 5.52 in the series on T116 cells (V79, 72 h). Further, the “NR Assay vi (initial velocity)” value at E. coli nitroreductase [2] was found to be 1.63 nmol/min. In addition, at E. coli nitroreductase [3], the half-life is 13 min. In series [4], the “Ratio of IC50 values (NR−/NR+)” value came out at 9.8. Besides, the “Ratio of IC50 values (F179/T116)” value in the series with T116 cells is on record as above 33.
`NC(=O)c1cc(N2CC2)c([N+](=O)[O-])cc1[N+](=O)[O-]` [CB1954, 5-(aziridin-1-yl)-2,4-dinitrobenzamide, reference compound]: the pIC50 in series [1] (SK-OV-3, 18 hour drug exposure, uninfected cells) is 3.22; in the series on hDT7 cells it was 5.77; in series [4] it was 5.40; in the series with F179 cells (1 h), below 4.00; in the series on F179 cells (72 h) it was 3.60; in the series on T116 cells (V79, 1 h), 6.51. Further, the pIC50 in the series with T116 cells (V79, 72 h) was 7.44. The compound also displayed a half-life on E. coli nitroreductase [3] (E. coli) of 5 min.
`O=[N+]([O-])c1ccc2c(c1)OP(=O)(N(CCCl)CCCl)NC2` (stereo not shown) [Compound 9b, 7-Nitro-2-[bis(2-chloroethyl)amino]-1,3,2-benzoxazaphosphorinane-2-oxide]: the pIC50 in series [1] (SK-OV-3, 18 h) was 3.29; with hDT7 cells it was 4.32; in series [4] it was 3.39; in the series on F179 cells (72 h) it was 4.21; in the series with T116 cells (V79, 72 h) it was 4.32. On E. coli nitroreductase [3], this compound showed a half-life of 11 min. In addition, in series [4], the “Ratio of IC50 values (NR−/NR+)” value amounted to 1.2. Further, in the series on T116 cells, the “Ratio of IC50 values (F179/T116)” value stood at 1.3.

The values above are taken from patent US20040214798A1 (priority 2003, published 2004).
